Assay results as given in patent US20030170740A1, “Characterized E2IG3 protein for diagnosis and treatment of proliferative diseases” (priority 2001, published 2003).

System: MCF-7 cells
Assay: High dose E2 treatment of MCF-7 cells (apoptosis)
Type: cell-based, human
Conditions: high dose E2 treatment of MCF-7 cells

SMILES: C[C@]12CC[C@@H]3c4ccc(O)cc4CC[C@H]3[C@@H]1CC[C@@H]2O [E2, 17B-estridiol]
- Effect of high dose E2 on cell fate (apoptosis): committed to apoptotic pathways
